In EP1206248B1, “CONTROLLED-RELEASE SEDATIVE-HYPNOTIC COMPOSITIONS AND METHODS RELATED THERETO” (Neurocrine Biosciences, Inc., priority 1999, dated 2001):
Values after ≈ are worked out from the molar mass of the structure shown.

What was measured:
[1] = log D partition coefficient
[2] = Plasma half-life and pharmacokinetic parameters from plasma concentration-time profiles; type: in vivo; conditions: human
Description: The mean plasma half-life of a sedative-hypnotic compound may be determined using well known techniques. Terminal half-life may be determined using standard pharmacokinetic calculations, such as those presented by Rolland and Tozer (Clinical Pharmacokinetics Concepts and Applications, 3rd. Ed., Chap. 3, 1995). In addition, software is commercially available which performs this calculation, such as the product sold under the tradename "WinNinlin™" (Prof. Ver.1.5). […]
To assess the plasma concentration time profiles, plasma concentration, Tmax and Tmin may be determined using well known techniques. […] Any suitable assay may be used to determine plasma levels, such as ELISA, RIA, or chromatography (e.g., gas-liquid chromatography or high pressure liquid chromatography) linked to any suitable detection system such as UV, fluorescence, mass spectrometry or an electrochemical system). […]
In this experiment, commercially available plasma profiling sofltware (GastroPlus™) (Simulations Plus Inc., CA) was used to simulate the effects of varying controlled release profiles and pharmacokinetic parameters based on in vivo plasma concentrations of NBI-34060 as measured in 12-healty male human subjects. […]

For `CC(=O)N(C)c1cccc(-c2ccnc3c(C(=O)c4cccs4)cnn23)c1` [NBI-34060, N-methyl-N-(3-{3-[2-thienylcarbonyl]-pyrazolo-[1,5-a]-pyrimidin-7-yl}-phenyl)acetamide], the “resulting pH” value (Solubility in water; pH of the aqueous solution at approximately 20-30 µg/ml) was “approximately 8.0”, the solubility (Solubility in water; water, pH 8, water) was 20 to 30 µg/mL (≈ 53.1 to 79.7 µM) and the logD [1] was 1.73. The half-life ([2]; plasma half-life of NBI-34060) was 1.3 h and the Vd ([2]; male, one-compartment pharmacokinetic model, assuming 70 kg subject weight, read-out: volume of distribution (Vd)) was 2.27 L/kg.
